Assay results: PubChem BioAssay (NCI)
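Each compound was tested at five concentrations against cells in 96-well plates for 48 hours. Definition used: TGI = concentration required for complete inhibition of growth.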

Key:
Assay in all cases: NCI-60 cell line screen, 48 h
786-0 renal = tested on: 786-0 renal
A498 renal = tested on: A498 renal
A549 NSCLC = tested on: A549 NSCLC
ACHN renal = tested on: ACHN renal
BT-549 breast = tested on: BT-549 breast
CAKI-1 renal = tested on: CAKI-1 renal
COLO 205 colon = tested on: COLO 205 colon
DU-145 prostate = tested on: DU-145 prostate
EKVX NSCLC = tested on: EKVX NSCLC
HCC-2998 colon = tested on: HCC-2998 colon
HCT-116 colon = tested on: HCT-116 colon
HCT-15 colon = tested on: HCT-15 colon
HOP-62 NSCLC = tested on: HOP-62 NSCLC
HOP-92 NSCLC = tested on: HOP-92 NSCLC
HS 578T breast = tested on: HS 578T breast
HT29 colon = tested on: HT29 colon
IGROV1 ovarian = tested on: IGROV1 ovarian
K-562 leukemia = tested on: K-562 leukemia
KM12 colon = tested on: KM12 colon
LOX IMVI melanoma = tested on: LOX IMVI melanoma
M14 melanoma = tested on: M14 melanoma
MALME-3M melanoma = tested on: MALME-3M melanoma
MCF7 breast = tested on: MCF7 breast
MDA-MB-231 breast = tested on: MDA-MB-231 breast
MDA-MB-435 = tested on: MDA-MB-435
MDA-N = tested on: MDA-N
MOLT-4 leukemia = tested on: MOLT-4 leukemia
NCI-H23 lung = tested on: NCI-H23 lung
NCI-H460 lung = tested on: NCI-H460 lung
NCI-H522 lung = tested on: NCI-H522 lung
NCI/ADR-RES ovarian = tested on: NCI/ADR-RES ovarian
OVCAR-3 ovarian = tested on: OVCAR-3 ovarian
OVCAR-4 ovarian = tested on: OVCAR-4 ovarian
OVCAR-5 ovarian = tested on: OVCAR-5 ovarian
OVCAR-8 ovarian = tested on: OVCAR-8 ovarian
PC-3 prostate = tested on: PC-3 prostate
RPMI-8226 leukemia = tested on: RPMI-8226 leukemia
RXF 393 renal = tested on: RXF 393 renal
SF-268 CNS = tested on: SF-268 CNS
SF-295 CNS = tested on: SF-295 CNS
SF-539 CNS = tested on: SF-539 CNS
SK-MEL-2 melanoma = tested on: SK-MEL-2 melanoma
SK-MEL-28 melanoma = tested on: SK-MEL-28 melanoma
SK-MEL-5 melanoma = tested on: SK-MEL-5 melanoma
SK-OV-3 ovarian = tested on: SK-OV-3 ovarian
SN12C renal = tested on: SN12C renal
SNB-19 CNS = tested on: SNB-19 CNS
SNB-75 CNS = tested on: SNB-75 CNS
SR leukemia = tested on: SR leukemia
SW-620 colon = tested on: SW-620 colon
T-47D breast = tested on: T-47D breast
TK-10 renal = tested on: TK-10 renal
U251 CNS = tested on: U251 CNS
UACC-257 melanoma = tested on: UACC-257 melanoma
UACC-62 melanoma = tested on: UACC-62 melanoma
UO-31 renal = tested on: UO-31 renal
CCRF-CEM leukemia = tested on: CCRF-CEM leukemia
HL-60(TB) leukemia = tested on: HL-60(TB) leukemia
NCI-H226 lung = tested on: NCI-H226 lung

In the case of `CC(CC(=O)O)(CC(=O)O)C(=O)O`, the TGI (786-0 renal) is reported as > 100 µM, the TGI (A498 renal) is reported as > 100 µM and the TGI (A549 NSCLC) is reported as > 100 µM. The TGI (ACHN renal) was > 100 µM, the TGI (BT-549 breast) was > 100 µM and the TGI (CAKI-1 renal) was > 100 µM. The TGI (COLO 205 colon) was > 100 µM, the TGI (DU-145 prostate) was > 100 µM and the TGI (EKVX NSCLC) was > 100 µM. The TGI (HCC-2998 colon) was > 100 µM, the TGI (HCT-116 colon) was > 100 µM and the TGI (HCT-15 colon) was > 100 µM. The TGI (HOP-62 NSCLC) was > 100 µM, the TGI (HOP-92 NSCLC) was > 100 µM and the TGI (HS 578T breast) was > 100 µM. The TGI (HT29 colon) was > 100 µM, the TGI (IGROV1 ovarian) was > 100 µM and the TGI (K-562 leukemia) was > 100 µM. For the same molecule, the TGI (KM12 colon) was > 100 µM, the TGI (LOX IMVI melanoma) was > 100 µM and the TGI (M14 melanoma) was > 100 µM. For the same molecule, the TGI (MALME-3M melanoma) was > 100 µM, the TGI (MCF7 breast) was > 100 µM and the TGI (MDA-MB-231 breast) was > 100 µM. The TGI (MDA-MB-435) was > 100 µM, the TGI (MDA-N) was > 100 µM and the TGI (MOLT-4 leukemia) was > 100 µM. The TGI (NCI-H23 lung) was > 100 µM, the TGI (NCI-H460 lung) was > 100 µM and the TGI (NCI-H522 lung) was > 100 µM. The TGI (NCI/ADR-RES ovarian) was > 100 µM, the TGI (OVCAR-3 ovarian) was > 100 µM and the TGI (OVCAR-4 ovarian) was > 100 µM. The TGI (OVCAR-5 ovarian) was > 100 µM, the TGI (OVCAR-8 ovarian) was > 100 µM and the TGI (PC-3 prostate) was > 100 µM. For the same molecule, the TGI (RPMI-8226 leukemia) was > 100 µM, the TGI (RXF 393 renal) was > 100 µM and the TGI (SF-268 CNS) was > 100 µM. For the same molecule, the TGI (SF-295 CNS) was > 100 µM, the TGI (SF-539 CNS) was > 100 µM and the TGI (SK-MEL-2 melanoma) was > 100 µM. The TGI (SK-MEL-28 melanoma) was > 100 µM, the TGI (SK-MEL-5 melanoma) was > 100 µM and the TGI (SK-OV-3 ovarian) was > 100 µM. For the same molecule, the TGI (SN12C renal) was > 100 µM, the TGI (SNB-19 CNS) was > 100 µM and the TGI (SNB-75 CNS) was > 100 µM. The TGI (SR leukemia) was > 100 µM, the TGI (SW-620 colon) was > 100 µM and the TGI (T-47D breast) was > 100 µM. The TGI (TK-10 renal) was > 100 µM, the TGI (U251 CNS) was > 100 µM and the TGI (UACC-257 melanoma) was > 100 µM. The TGI (UACC-62 melanoma) was > 100 µM and the TGI (UO-31 renal) was > 100 µM.
In the case of `CNc1ccc2nc(-c3ccc(OC(=O)N(C)C)cc3)cn2c1`, the TGI (786-0 renal) is reported as 27.6 µM, the TGI (A498 renal) is reported as 32.2 µM and the TGI (A549 NSCLC) is reported as 32.4 µM. It also gave a TGI (ACHN renal) of 37.3 µM, a TGI (BT-549 breast) of 31.6 µM and a TGI (CAKI-1 renal) of 44.7 µM. For the same molecule, the TGI (CCRF-CEM leukemia) was 32.3 µM, the TGI (COLO 205 colon) was 32.2 µM and the TGI (DU-145 prostate) was > 100 µM. It also gave a TGI (EKVX NSCLC) of 33.4 µM, a TGI (HCC-2998 colon) of 81.2 µM and a TGI (HCT-116 colon) of 33.5 µM. It also gave a TGI (HCT-15 colon) of 40.2 µM, a TGI (HL-60(TB) leukemia) of 62.3 µM and a TGI (HOP-62 NSCLC) of 32.9 µM. For the same molecule, the TGI (HOP-92 NSCLC) was 50 µM, the TGI (HS 578T breast) was > 100 µM and the TGI (HT29 colon) was 34 µM. The TGI (IGROV1 ovarian) was 31.8 µM, the TGI (K-562 leukemia) was 49.7 µM and the TGI (KM12 colon) was 32.3 µM. For the same molecule, the TGI (LOX IMVI melanoma) was 31.6 µM, the TGI (M14 melanoma) was 36.9 µM and the TGI (MALME-3M melanoma) was > 100 µM. The TGI (MCF7 breast) was 43.6 µM, the TGI (MDA-MB-231 breast) was 31.5 µM and the TGI (MDA-MB-435) was 30.7 µM. The TGI (MDA-N) was 38 µM, the TGI (MOLT-4 leukemia) was 43 µM and the TGI (NCI-H226 lung) was 37.4 µM. It also gave a TGI (NCI-H23 lung) of 40.4 µM, a TGI (NCI-H460 lung) of 34.4 µM and a TGI (NCI-H522 lung) of 28.8 µM. For the same molecule, the TGI (NCI/ADR-RES ovarian) was 59.1 µM, the TGI (OVCAR-3 ovarian) was > 100 µM and the TGI (OVCAR-4 ovarian) was 31.6 µM. For the same molecule, the TGI (OVCAR-5 ovarian) was 46 µM, the TGI (OVCAR-8 ovarian) was 30.3 µM and the TGI (PC-3 prostate) was 29.5 µM. For the same molecule, the TGI (RXF 393 renal) was 26.1 µM, the TGI (SF-268 CNS) was 30 µM and the TGI (SF-295 CNS) was 31.5 µM. For the same molecule, the TGI (SK-MEL-2 melanoma) was 31.8 µM, the TGI (SK-MEL-28 melanoma) was > 100 µM and the TGI (SK-MEL-5 melanoma) was 57.1 µM. The TGI (SK-OV-3 ovarian) was 33 µM, the TGI (SN12C renal) was 27.2 µM and the TGI (SNB-19 CNS) was 29.6 µM. The TGI (SR leukemia) was 44.1 µM, the TGI (SW-620 colon) was 51.4 µM and the TGI (T-47D breast) was 47.2 µM. The TGI (TK-10 renal) was 34.3 µM, the TGI (U251 CNS) was 28.8 µM and the TGI (UACC-257 melanoma) was > 100 µM. It also gave a TGI (UACC-62 melanoma) of 35.1 µM and a TGI (UO-31 renal) of 35.4 µM.
In the case of `NC(N)=N/N=C(\c1ccc(Cl)cc1)C1CC1`, the TGI (786-0 renal) is reported as 32.5 µM, the TGI (A498 renal) is reported as 32.3 µM and the TGI (A549 NSCLC) is reported as > 100 µM. For the same molecule, the TGI (ACHN renal) was 57.7 µM, the TGI (BT-549 breast) was 49.6 µM and the TGI (CAKI-1 renal) was > 100 µM. It also gave a TGI (COLO 205 colon) of 31 µM, a TGI (DU-145 prostate) of 57.4 µM and a TGI (EKVX NSCLC) of 83 µM. It also gave a TGI (HCC-2998 colon) of 19.4 µM, a TGI (HCT-116 colon) of 31 µM and a TGI (HCT-15 colon) of 40.2 µM. The TGI (HOP-62 NSCLC) was 37.7 µM, the TGI (HOP-92 NSCLC) was 62.6 µM and the TGI (HS 578T breast) was 78.3 µM. It also gave a TGI (HT29 colon) of 32.2 µM, a TGI (IGROV1 ovarian) of 31.8 µM and a TGI (K-562 leukemia) of 55.7 µM. The TGI (KM12 colon) was 35.8 µM, the TGI (LOX IMVI melanoma) was 30 µM and the TGI (M14 melanoma) was 30 µM. For the same molecule, the TGI (MALME-3M melanoma) was 29 µM, the TGI (MCF7 breast) was 32.5 µM and the TGI (MDA-MB-231 breast) was 34.9 µM. For the same molecule, the TGI (MDA-MB-435) was 34.7 µM, the TGI (MDA-N) was 30.8 µM and the TGI (NCI-H226 lung) was 33.2 µM. The TGI (NCI-H23 lung) was 73.1 µM, the TGI (NCI-H460 lung) was 29.9 µM and the TGI (NCI-H522 lung) was 31.3 µM. For the same molecule, the TGI (NCI/ADR-RES ovarian) was 61.2 µM, the TGI (OVCAR-3 ovarian) was 50.4 µM and the TGI (OVCAR-4 ovarian) was > 100 µM. It also gave a TGI (OVCAR-5 ovarian) of 39.3 µM, a TGI (OVCAR-8 ovarian) of 40.4 µM and a TGI (PC-3 prostate) of 34.9 µM. The TGI (RPMI-8226 leukemia) was 37.9 µM, the TGI (RXF 393 renal) was > 100 µM and the TGI (SF-268 CNS) was > 100 µM. For the same molecule, the TGI (SF-295 CNS) was 48.3 µM, the TGI (SF-539 CNS) was 32.3 µM and the TGI (SK-MEL-2 melanoma) was 34.5 µM. For the same molecule, the TGI (SK-MEL-28 melanoma) was 38.2 µM, the TGI (SK-MEL-5 melanoma) was 29 µM and the TGI (SK-OV-3 ovarian) was 78.7 µM. For the same molecule, the TGI (SN12C renal) was 42.3 µM, the TGI (SNB-19 CNS) was > 100 µM and the TGI (SNB-75 CNS) was 68.9 µM. It also gave a TGI (SR leukemia) of 29.1 µM, a TGI (SW-620 colon) of 35.2 µM and a TGI (T-47D breast) of 64.4 µM. It also gave a TGI (TK-10 renal) of 29.9 µM, a TGI (U251 CNS) of 27.2 µM and a TGI (UACC-257 melanoma) of 28 µM. The TGI (UACC-62 melanoma) was 29.3 µM and the TGI (UO-31 renal) was 79.9 µM.
